According to the Deep4Chem optical property database:

Assay: solvent given as SMILES
[1] = in c1cc(-c2cccc(-n3c4ccccc4c4ccccc43)c2)cc(-n2c3ccccc3c3ccccc32)c1

CN(C)CCCN1c2ccccc2Sc2ccc(C(F)(F)F)cc21
fluorescence lifetime (in CC#N): 2.66 ns | fluorescence lifetime (in CO): 2.47 ns | fluorescence lifetime (in O): 3.17 ns

CC1(C)CC(/N=C/c2ccc3ccc4cccc5ccc2c3c45)CC(C)(C)N1
fluorescence lifetime (in C1CCCCC1): 7.3 ns | fluorescence lifetime (in CC#N): 2.9 ns | fluorescence lifetime (in CO): 2.6 ns | fluorescence lifetime (in ClC(Cl)Cl): 0.3 ns

CN1CCc2cc(C3=Cc4cccc[n+]4[B-](F)(F)O3)ccc21
fluorescence lifetime (in ClC(Cl)Cl): 3.11 ns

O=C([O-])c1ccc(C(=O)[O-])c2cc3ccccc3cc12
fluorescence lifetime (in CN(C)C=O): 1 ns

CC1=[N+]2C(=C(c3ccc(N(C)C)cc3)c3ccc(C)n3[B-]2(F)F)C=C1
fluorescence lifetime (in C1CCCCC1): 2.72 ns | fluorescence lifetime (in Cc1ccccc1): 3.24 ns

C[SiH](C)c1ccc([SiH](C)C)c2ccccc12
fluorescence lifetime (in C1CCCCC1): 30 ns

Oc1ccc2ccc(C3(O)C4CC5CC(C4)CC3C5)cc2c1 (centres undefined)
fluorescence lifetime (in CC#N): 7.78 ns

O=C(O)CCCCCn1c2ccc(Br)cc2c(=O)c2cc(S(=O)(=O)O)ccc21
fluorescence lifetime (in O): 7.1 ns

CCOC(=O)c1ccc2c(c1)n(C)c1c3ccc(C(=O)OCC)cc3n(C)c21
fluorescence lifetime (in CCCO): 7.8 ns

O=S(=O)(c1ccc(N2c3ccccc3Oc3ccccc32)cc1)c1ccc(N2c3ccccc3Oc3ccccc32)cc1
fluorescence lifetime (in C1COCCO1): 19 ns | fluorescence lifetime (in CC(C)=O): 4.3 ns | fluorescence lifetime (in Cc1ccccc1): 15 ns | fluorescence lifetime (in ClC(Cl)Cl): 16 ns | fluorescence lifetime (in c1cc(-n2c3ccccc3c3ccccc32)cc(-n2c3ccccc3c3ccccc32)c1): 14 ns

c1ccc2c(-n3c(-c4ccc(-c5ccc(-c6nc7c8ccccc8c8ccccc8c7n6-c6cccc7ccccc67)c6ccccc56)c5ccccc45)nc4c5ccccc5c5ccccc5c43)cccc2c1
fluorescence lifetime (in ClCCl): 1.87 ns

c1ccc2c(c1)Sc1ccc(-n3c4ccccc4c4ccccc43)cc1S2
fluorescence lifetime (in CC1CCCCC1): 9.4 ns | fluorescence lifetime (in O=P(c1ccccc1)(c1ccccc1)c1ccccc1Oc1ccccc1P(=O)(c1ccccc1)c1ccccc1): 3.5 ns | fluorescence lifetime [1]: 5.1 ns

c1ccc(/C(=C(\c2ccccc2)c2ccccc2-c2ccc(-c3ccccc3)cc2)c2ccccc2-c2ccc(-c3ccccc3)cc2)cc1
fluorescence lifetime (in C1CCOC1): 7 ns

O=C(O)c1ccc(-c2nc(-c3ccccc3)c3c4ccccc4ccn23)cc1
fluorescence lifetime (in CC#N): 2.5 ns

Cc1cc(C#Cc2ccccc2)c2ccc3c(C#Cc4ccccc4)cc(C#Cc4ccccc4)c4ccc1c2c43
fluorescence lifetime (in CS(C)=O): 1.89 ns | fluorescence lifetime (in ClC(Cl)(Cl)Cl): 1.57 ns

COc1ccc(C2=Cc3c4ccccc4cc[n+]3[B-](F)(F)O2)cc1
fluorescence lifetime (in ClC(Cl)Cl): 0.958 ns

COc1ccc(-c2csc(/C(C#N)=C/c3ccc(C#N)cc3)n2)cc1
fluorescence lifetime (in CC#N): 1.43 ns

O=C1CCCc2c1[nH]c1cc3c(cc21)OCO3
fluorescence lifetime (in C1CCOC1): 0.442 ns | fluorescence lifetime (in C1COCCO1): 0.481 ns | fluorescence lifetime (in CC#N): 0.978 ns | fluorescence lifetime (in CCCCCCCCCCCCO): 1.36 ns | fluorescence lifetime (in CCCCCCCCCCO): 1.28 ns | fluorescence lifetime (in CCCCCCCCO): 1.25 ns | fluorescence lifetime (in CCCCCCO): 1.22 ns | fluorescence lifetime (in CCCCO): 1.12 ns | fluorescence lifetime (in CCO): 1.36 ns | fluorescence lifetime (in CCOC(C)=O): 0.476 ns | fluorescence lifetime (in CN(C)C=O): 0.838 ns | fluorescence lifetime (in CO): 1.78 ns | fluorescence lifetime (in CS(C)=O): 1.43 ns | fluorescence lifetime (in O): 2.29 ns | fluorescence lifetime (in c1ccccc1): 0.466 ns

c1ccc(/C(=C(\c2ccccc2)c2cc(-c3ccc(-c4ccccc4)cc3)ccc2-c2ccc(-c3ccccc3)cc2)c2cc(-c3ccc(-c4ccccc4)cc3)ccc2-c2ccc(-c3ccccc3)cc2)cc1
fluorescence lifetime (in C1CCOC1): 8.2 ns

CC1(C)c2ccccc2N(c2ccc(-c3nc(C#N)c(C#N)nc3-c3ccc(N4c5ccccc5C(C)(C)c5ccccc54)cc3)cc2)c2ccccc21
fluorescence lifetime [1]: 30 ns

N#Cc1ccc(C#Cc2ccc(C#Cc3ccc(C#Cc4ccccc4C#N)cc3C#N)cc2C#N)cc1
fluorescence lifetime (in C1CCOC1): 1.23 ns | fluorescence lifetime (in CC#N): 1.79 ns | fluorescence lifetime (in CN(C)C=O): 1.61 ns | fluorescence lifetime (in ClC(Cl)Cl): 1.14 ns | fluorescence lifetime (in c1ccccc1): 1.65 ns

CCOC(=O)CCCCCn1c2ccc(C)cc2c(=O)c2cc3c(cc21)c(=O)c1cc(C)ccc1n3CCCCCC(=O)OCC
fluorescence lifetime (in CO): 22 ns

O=c1oc2ccccc2cc1-c1ccc(-c2cc3ccccc3oc2=O)cc1
fluorescence lifetime (in ClC(Cl)Cl): 1.4 ns

CC(=O)c1ccc(-c2cnc3nn4ccccc4c3n2)cc1
fluorescence lifetime (in C1CCOC1): 5.1 ns

c1ccc2nc3cccc(-c4ccc(-n5c6ccccc6c6ccccc65)cc4)c3cc2c1
fluorescence lifetime (in CC#N): 10.6 ns | fluorescence lifetime (in CCCCCC): 0.2 ns | fluorescence lifetime (in CCOCC): 0.2 ns | fluorescence lifetime (in ClCCl): 6.68 ns

N#Cc1cccc2cc[nH]c12
fluorescence lifetime (in C1CCOC1): 6.9 ns | fluorescence lifetime (in C1COCCO1): 7.5 ns | fluorescence lifetime (in CC#N): 8 ns | fluorescence lifetime (in CC(C)O): 9 ns | fluorescence lifetime (in CCO): 8.7 ns | fluorescence lifetime (in CO): 8.2 ns | fluorescence lifetime (in CS(C)=O): 14.5 ns | fluorescence lifetime (in NC=O): 15.7 ns | fluorescence lifetime (in O): 2 ns | fluorescence lifetime (in OCC(F)(F)F): 1.2 ns | fluorescence lifetime (in [2H]O[2H]): 2.3 ns

Cc1ccc(NC(=O)c2sc(Br)nc2C)cc1
fluorescence lifetime (in CO): 0.22 ns | fluorescence lifetime (in ClC(Cl)Cl): 0.12 ns

NCCCCCCCCCCCCN1C(=O)c2ccc3c4ccc5c6c(ccc(c7ccc(c2c37)C1=O)c64)C(=O)N(CCCCCCCCCCCCN)C5=O
fluorescence lifetime (in CN(C)C=O): 4.1 ns

CCCCCCCCn1c(=O)c2cc3cc4cc5c(=O)n(CCCCCCCC)c(=O)c5cc4c(C#Cc4ccc(N(c5ccccc5)c5ccccc5)cc4)c3cc2c1=O
fluorescence lifetime (in ClC(Cl)Cl): 4.2 ns
